Usually melting point stands for the temperature of the solid-liquid transition.

SMILES strings stand for the structures. Structures can show the parent of a compound that is named as a salt.

T1 sequence (P25103 whole entry): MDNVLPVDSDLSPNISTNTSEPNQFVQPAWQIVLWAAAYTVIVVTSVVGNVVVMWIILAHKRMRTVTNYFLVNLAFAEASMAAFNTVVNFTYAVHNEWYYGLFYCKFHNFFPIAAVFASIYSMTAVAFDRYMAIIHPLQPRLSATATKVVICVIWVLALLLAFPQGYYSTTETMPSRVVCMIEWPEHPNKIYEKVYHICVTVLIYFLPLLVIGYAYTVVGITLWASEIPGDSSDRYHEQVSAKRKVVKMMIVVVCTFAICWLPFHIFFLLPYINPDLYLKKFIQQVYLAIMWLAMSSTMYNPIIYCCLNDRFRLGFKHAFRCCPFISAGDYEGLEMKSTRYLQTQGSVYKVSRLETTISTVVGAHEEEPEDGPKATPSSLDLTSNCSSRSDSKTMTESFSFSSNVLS

System in the first series: not given
Experiment: not given
Settings: not given
Molecule `Cc1ccccc1-c1cnc(OCCN(C)C)nc1C(=O)N(C)Cc1cc(C(F)(F)F)cc(C(F)(F)F)c1` (as salt: hydrochloride) [Example 21, 2-(2-Dimethylamino-ethoxy)-5-o-tolyl-pyrimidine-4-carboxylic acid (3,5-bis-trifluoromethyl-benzyl)-methyl-amide] came in with a melting point of 147 to 149 °C.

Another series concerns the target T1, human NK1 receptor (Homo sapiens, UniProt P25103).
T1 construct: expressed in transfected cells; host or cells: CHO cells infected with Semliki virus expression system; membrane suspension
The series can be described thus: NK1 receptor binding assay, displacement of [3H]substance P. The conditions noted are these: [3H]substance P (0.6 nM) displacement; CHO cells infected with the human NK1 receptor (Semliki virus expression system); 60 min at room temperature; read-out: affinity to the NK-1 receptor, given as pKi (converted). The method, then:
The affinity of test compounds for the NK, receptor was evaluated at human NK, receptors in CHO cells infected with the human NK1 receptor (using the Semliki virus expression system) and radiolabelled with [^3H]substance P (final concentration 0.6 nM). Binding assays were performed in HEPES buffer (50 mM, pH 7.4) containing BSA (0.04 %) leupeptin (8 μg/ml), MnCl2 (3mM) and phosphoramidon (2 μM). Binding assays consisted of 250 μl of membrane suspension (1.25×10^5 cells/assay tube), […] of buffer of displacing agent and 125 μl of [^3H]substance P. Displacement curves were determined with at least seven concentrations of the compound. The assay tubes were incubated for 60 min at room temperature after which time the tube contents were rapidly filtered under vacuum through GF/C filters presoaked for 60 min with PEI (0.3%) with 2×2 ml washed of HEPES buffer (50 mM, pH 7.4). The radioactivity retained on the filters was measured by scintillation counting. All assays were performed in triplicate in at least 2 separate experiments.
With `CN1CCN(c2ncc(-c3ccccc3Cl)c(C(=O)N(C)Cc3cc(C(F)(F)F)cc(C(F)(F)F)c3)n2)CC1` [Example 13, 5-(2-Chloro-phenyl)-2-(4-methyl-piperazin-1-yl)-pyrimidine-4-carboxylic acid (3,5-bis-trifluoromethyl-benzyl)-methyl-amide], the Ki was 6.17 nM.
Take `Cc1ccccc1-c1cnc(OCCN(C)C)nc1C(=O)N(C)Cc1cc(C(F)(F)F)cc(C(F)(F)F)c1` [Example 21, 2-(2-Dimethylamino-ethoxy)-5-o-tolyl-pyrimidine-4-carboxylic acid (3,5-bis-trifluoromethyl-benzyl)-methyl-amide]: the Ki is 2.19 nM.
`CN1CCN(c2ncc(-c3cccc4ccccc34)c(C(=O)N(C)Cc3cc(C(F)(F)F)cc(C(F)(F)F)c3)n2)CC1` [Example 25, 2-(4-Methyl-piperazin-1-yl)-5-naphthalen-1-yl-pyrimidine-4-carboxylic acid (3,5-bis-trifluoromethyl-benzyl)-methyl-amide]: the Ki is 3.72 nM.
As to `Cc1cc(F)ccc1-c1cnc(NCCN(C)C)nc1C(=O)N(C)Cc1cc(C(F)(F)F)cc(C(F)(F)F)c1` [Example 54, 2-(2-Dimethylamino-ethylamino)-5-(4-fluoro-2-methyl-phenyl)-pyrimidine-4-carboxylic acid (3,5-bis-trifluoromethyl-benzyl)-methyl-amide], the Ki is 1.45 nM.
Same read-out and setting: in the case of `Cc1ccccc1-c1cnc(OCCN(C)C)nc1N(C)C(=O)C(C)(C)c1cc(C(F)(F)F)cc(C(F)(F)F)c1` [Example 79, 2-(3,5-Bis-trifluoromethyl-phenyl)-N-[2-(2-dimethylamino-ethoxy)-5-o-tolyl-pyrimidin-4-yl]-N-methyl-isobutyramide] it was 0.661 nM.

Values taken from US6756380B1, “5-phenyl-pyrimidine derivatives” (Hoffmann-La Roche Inc., priority 1999, dated 2004).
